Results on one substance are retold here after patent US20210071180A1, “MICRORNA 584-5P COMPOSITIONS AND METHODS FOR TREATING CANCER” (BOARD OF REGENTS, THE UNIVERSY OF TEXAS SYSTEM, priority 2018, published 2021).

What all share (assay type): cell-based
The subject of one series is HDAC1. Kind of series: qPCR and Western blot of HDAC1 in MB cells. The settings on record: transcript and protein levels, all cell lines tested. On the technique in general: Quantitative PCR measures a nucleic acid by following its amplification.
Series [1] concerns MB cells. Kind of series: Immunofluorescence of mitotic spindles / mitotic catastrophe. Here is the method: DNA is stained with DAPI (blue), whereas spindle is stained with β-tubulin (red) (below).
Immunofluorescence and Western blot analysis Immunofluorescence analyses was carried out on cells fixed in 4% paraformaldehyde (Imam, J. S. et al. PLoS One 7, e52397, (2012)). […]
VCR disrupts the integrity of the mitotic spindle and destabilizes microtubules (George, P., Journey, L. J. & Goldstein, M. N. J Natl Cancer Inst 35, 355-375 (1965)). […] In FIG. 12A, the p-values were calculated using standard Student t-tests. […] The p-values were calculated using standard Student t-tests. […] In FIG. 11F, the p-values were calculated using standard Student t-tests. […] In FIG. 11H, The p-values were calculated using standard Student t-tests. […] Quantitative real-time PCR. […]

A further series relates to eIF4E1. Briefly: Western blot analysis of eIF4E1. The settings on record: MB cells. Here is the method:
Next, it was determined whether miR-584-5p and its target genes, eIF4E3 and HDAC1, show reciprocal expression pattern in MB. […] In FIG. 16A, data represent Log 2 ratio tumor/cerebellum control. Data mined from GSE42657. In FIG. 16B, data represent Log 2 ratio tumor/cerebellum control. Data mined from GSE28245. To further confirm those results, miR-584-5p expression in MB patient-derived xenografts was examined. […] The p-values were calculated using one-way ANOVA followed by Sidak's multiple-comparisons test. Error bars represent mean±SEM. To further confirm the specificity of miR-584-5p-eIF4E3 signaling axis in MB, the expression of eIF4E1, which acts as an oncogene in several cancers (Bhat, M. et al. Nat Rev Drug Discov 14, 261-278, (2015)), was tested in miR-584-5p treated cells.

Series [2] deals with MB cells. Briefly: IR dose-response, alamarBlue cell viability assay. To be noted: IR for 24 hours, normalized to 0 Gy. From the text:
FIG. 13C-D show representative immunofluorescence images showing 53BP1 foci in D556Med cells transfected with miR-NC or miR-584-5p mimic (C) or scramble-siRNA or eIF4E3/HDAC1-siRNAs (D) and treated with or without 10 Gy of IR.
VCR is routinely used during and after radiation therapy to treat MB patients (Packer, R. J. et al. J Neurosurg 74, 433-440, (1991)), mainly because microtubule-targeting agents such as VCR enhances the toxic effects of DNA-damaging agents, including radiation (Poruchynsky, M. S. et al. Proc Natl Acad Sci USA 112, 1571-1576, (2015); and Oehler, C. et al. Neuro Oncol 13, 1000-1010, doi:10.1093/neuonc/nor069 (2011)). Moreover, cells in G2/M phase are the most sensitive to IR (Pawlik, T. M. & Keyomarsi, K. Int J Radiat Oncol Biol Phys 59, 928-942, (2004)). […] All values were normalized to 0 Gy. […] Error bars represent mean±SEM. Next, it was determined whether eIF4E3 or HDAC1 may mediate miR-584-5p's IR response. […] All values were normalized to 0 Gy. […] Error bars represent mean±SEM.
For orientation: Alamar Blue is a resazurin reagent that responds to reducing activity.

Take “miR-584-5p: microRNA mimic; nucleotide sequence UUAUGGUUUGCCUGGGACUGAG (SEQ ID NO: 1); purchased from Thermofisher (chemistry not given here)”: in the series with HDAC1, the “expression of HDAC1” value is given as “significantly reduced expression”. The mitotic catastrophe features result in the series with MB cells [1] (miR-584-5p-overexpressing MB cells) was “many cells with multipolar metaphase/anaphase, spindles with unorganized poles, micronuclei, and aneuploidy”. For the same substance, in the series with MB cells [1] (β-tubulin/DAPI staining), the mitotic spindle defects entry is “variety of mitotic spindle defects”. The eIF4E1 levels result in the series with eIF4E1 was “did not show any change”. Moreover, the “sensitivity to IR relative to scrambled-transfected cells” value with MB cells [2] is recorded as 10 fold.
